According to patent US20080124376A1, “OCULAR DEVICES AND METHODS OF MAKING AND USING THEREOF” (NOVARTIS AG, priority 2006, published 2008):
Counter-ions that a name gives are not always drawn.

Legend:
Format in all cases: physicochemical
[1] = Direct loading of drug into the Nelfilcon macromer (loading level); conditions: drug loaded directly into Nelfilcon macromer
Experimental: A mixture of Nelfilcon and cromolyn sodium was polymerised to form a membrane, and 1.5 cm diameter discs were cut out and the release profile examined. The release profile of the directly loaded and the absorbed drug described above were compared. Direct loading levels were much lower (approx. 20 μg per lens) than the 1 mg per lens absorbed from a 4% solution.

[2] = Drug uptake via absorption into the Dailies matrix from soak solution
Experimental: Cromolyn sodium was strongly absorbed by the Dailies matrix. The amount absorbed from a 4% concentration (equivalent to an ophthalmic solution) soak solution was on the order of 1 mg. Approximately 100 μg was released passively during a short burst period, leaving some 900 μg for release by trigger mechanism.
Ketotifen fumarate was used at much lower levels in ophthalmic solution (0.025%) than cromolyn sodium, which was reflected in the uptake experiments. Ketotifen fumarate was absorbed from a 0.025% solution into the lens at a level of 35 μg, with a modest amount released during a short burst period, leaving approximately 30 μg retained in the matrix. This is a very significant payload in relation to daily requirements.

[3] = Trigger release in vortex eye model (in vitro in-eye release model); conditions: for triggered release: in eye model (vortex); for trigger release following passive diffusion: drug loaded via absorption into Dailies matrix
Experimental: The vortex model is the in vitro in-eye release model described in commonly owned copending US Patent Application Publication No. 2006/0251696 A1 (herein incorporated by reference in its entirety). The experiment is carried out as follows. A contact lens is first blotted dry and immediately is carefully placed into 100 microliter of an extraction medium in an tube (e.g., a centrifuge tube, a scintillation vial, or preferably an Eppendorf microtube) and the microtube is agitated for fifteen seconds using, e.g., a Vibrex vortex mixer. At the end of one hour period, the tube is again agitated using, e.g., a Vibrex vortex mixer, for a further fifteen seconds. The extraction medium is removed from the Eppendorf microtube and 100 microliter of a fresh extraction medium is added. Extraction samples are stored at 25° C. between agitation procedures. The concentration of a guest material extracted out of a lens can be determined according to any methods known to a person skilled in the art.

[4] = Passive diffusion release from drug-loaded lens / Nelfilcon membrane discs
Experimental: Cromolyn sodium was strongly absorbed by the […] matrix. The amount absorbed from a 4% concentration (equivalent to an ophthalmic solution) soak solution was on the order of 1 mg. Approximately 100 μg was released passively during a short burst period, leaving some 900 μg for release by trigger mechanism. […] A mixture of Nelfilcon and cromolyn sodium was polymerised to form a membrane, and 1.5 cm diameter discs were cut out and the release profile examined. The release profile of the directly loaded and the absorbed drug described above were compared. Direct loading levels were much lower (approx. 20 μg per lens) than the 1 mg per lens absorbed from a 4% solution. […] Ketotifen fumarate was used at much lower levels in ophthalmic solution (0.025%) than cromolyn sodium, which was reflected in the uptake experiments. Ketotifen fumarate was absorbed from a 0.025% solution into the lens at a level of 35 μg, with a modest amount released during a short burst period, leaving approximately 30 μg retained in the matrix. This is a very significant payload in relation to daily requirements. […] A mixture of Nelfilcon and ketotifen fumarate was polymerised to form a membrane, and 1.5 cm diameter discs were cut out and the release profile examined. The release profile of the directly loaded and the absorbed drug described above were compared. As with cromolyn sodium, the matrix distribution of the drug loaded directly into the polymer matrix produced differences in release behaviour compared to the absorbed drug.

[5] = Release of hyaluronan from Nelfilcon matrix in artificial lacrimal solution
Experimental: Using the techniques above, a mixture of Nelfilcon and varying amounts of hyaluronan was polymerised to form a membrane. The amount of hyaluronan loaded into the Nelfilcon macromer was 2, 6.5, and 40 mg hyaluronan/g nelfilcon (30% by weight aqueous solution). The hyaluronan used was approximately 50 kDa, 100 kDa, and 1 million Da.
The release of hyaluronan from the membrane was investigated by varying the amount and length of the hyaluronan incorporated into the matrix. Release studies were performed by placing each lens in a solution of 5 mL of artificial lacrimal solution at 35° C.

[6] = Heat stability of Nelfilcon lens with hyaluronan; conditions: lens in 6.5 mg/mL hyaluronan solution, pH 11, 120° C. for 40 minutes; FIG. 3
Experimental: Heat stability studies were also performed on the membranes. A lens prepared from 6.5 mg/mL loading of 1 M Da hyaluronan was placed in a tube of 6.5 mg/mL solution of hyaluronan at a pH of 11. The tube was sealed with a total volume of 0.8 mL, and the solution was heated at 120° C. for 40 minutes.

[7] = Release of Rose Bengal from Nelfilcon lenses in PBS and lysozyme solution
[8] = Aqueous passive and agitated release from ASM981-loaded Nelfilcon membrane; conditions: membrane of 1% ASM981 in Nelfilcon
Experimental: The addition of Pimecrolimus (SDZ ASM981), which is synthesized by Novartis Pharma, in solution form to Nelfilcon macromer increases the liquid content of the macromer. Simple addition of the ASM981 consequently diluted the macromer and photopolymerisation produced wet structurally incoherent product. A membrane composed of 1% ASM981 was prepared by adding 1 g of the ASM981 solution to 5 g of nelfilcon macromer, vortexing for approximately 5 minutes, and removing the lid of the vial to remove excess water. The mass of the ASM981-loaded macromer was allowed to return to its original 5 g. This was conveniently achieved by leaving the mixture overnight on a flatbed shaker under a nitrogen blanket. The mixture was then placed in a membrane mould and polymerised under a static UV lamp. The mixture was successfully polymerised to form a coherent membrane, and the resultant membrane was opaque in appearance.

[9] = drug loaded directly into Nelfilcon macromer

O=C(O)c1cc(=O)c2c(OCC(O)COc3cccc4oc(C(=O)O)cc(=O)c34)cccc2o1 [Cromolyn sodium]
direct loading level [1]: approx. 20 μg per lens
amount absorbed from soak solution ([2]; 4% concentration soak solution): ~1 mg
triggered release [3, 9]: very significant triggered release
trigger release following passive diffusion ([3]; vortex eye model): significant release
amount released passively during a short burst period ([4]; drug absorbed into Dailies matrix from 4% solution): Approximately 100 μg
amount left for release by trigger mechanism ([4]; drug absorbed into Dailies matrix from 4% solution, after burst): ~900 µg
passive release ([4]; drug loaded directly into Nelfilcon macromer, 1.5 cm discs): virtually zero passive release

hyaluronan
effect of increasing the amount of hyaluronan on release ([5]; 2, 6.5, 40 mg hyaluronan/g nelfilcon, FIG. 2): significantly affects the release

hyaluronan [1 M Da hyaluronan]
heat stability: release over time after heating [6]: release curve is similar to that of the release of hyaluronan from the matrix that is not heated
release pattern (release rate) ([5]; loading 6.5 mg HA/g nelfilcon, 5 mL artificial lacrimal solution, 35° C., FIG. 1): relatively constant release rate from 2 to 48 hours

O=C([O-])c1c(Cl)c(Cl)c(Cl)c(Cl)c1-c1c2cc(I)c(=O)c(I)c-2oc2c(I)c([O-])c(I)cc12.[Na+].[Na+] [Rose Bengal]
stability of loaded lens in saline solutions ([7]; Nelfilcon lens loaded with Rose Bengal): stable in saline solutions for extended periods of time
release in PBS solution with no lysozyme ([7]; Nelfilcon lens, approximately minute 150, FIG. 4): little to no Rose Bengal was released
release in a solution of lysozyme ([7]; Nelfilcon lens, from minute zero, FIG. 4): released steadily

CN1CCC(=C2c3ccccc3CC(=O)c3sccc32)CC1 [Ketotifen fumarate]
amount absorbed into the lens ([2]; 0.025% solution): 35 µg
effect of albumin on trigger release ([3]; drug absorbed into Dailies matrix, albumin): little effect
effect of positively charged proteins such as lysozyme on trigger release ([3]; drug absorbed into Dailies matrix, lysozyme): significant enhanced effect
triggered release [3, 9]: very effective further release
effect of positively charged tear protein (lysozyme) on trigger release ([3]; drug loaded directly into Nelfilcon macromer, vortex eye model): enhanced
trigger release following passive diffusion ([3]; vortex eye model): enhanced triggered release susceptibility
amount released during a short burst period ([4]; drug absorbed into Dailies matrix from 0.025% solution): modest amount
amount retained in the matrix ([4]; drug absorbed into Dailies matrix from 0.025% solution, after burst): approximately 30 μg
time for passive diffusion to come to equilibrium [4, 9]: three

CC[C@@H]1/C=C(\C)C[C@H](C)C[C@H](OC)[C@H]2O[C@@](O)(C(=O)C(=O)N3CCCC[C@H]3C(=O)O[C@H](/C(C)=C/[C@@H]3CC[C@H](Cl)[C@H](OC)C3)[C@H](C)[C@@H](O)CC1=O)[C@H](C)C[C@@H]2OC [ASM981, Pimecrolimus]
aqueous passive and agitated release [8]: no release was observed
